From patent publication US20110195900A1, “PEPTIDIC PTH RECEPTOR AGONISTS” (FERRING B.V., priority 2008, published 2011) come the findings set out here.

The target in one assay is T1, human PTH-1 receptor (Homo sapiens, UniProt Q03431).
T1 construct: expressed in transfected cells; host or cells: HEK-293
T1 sequence (Q03431 27-593): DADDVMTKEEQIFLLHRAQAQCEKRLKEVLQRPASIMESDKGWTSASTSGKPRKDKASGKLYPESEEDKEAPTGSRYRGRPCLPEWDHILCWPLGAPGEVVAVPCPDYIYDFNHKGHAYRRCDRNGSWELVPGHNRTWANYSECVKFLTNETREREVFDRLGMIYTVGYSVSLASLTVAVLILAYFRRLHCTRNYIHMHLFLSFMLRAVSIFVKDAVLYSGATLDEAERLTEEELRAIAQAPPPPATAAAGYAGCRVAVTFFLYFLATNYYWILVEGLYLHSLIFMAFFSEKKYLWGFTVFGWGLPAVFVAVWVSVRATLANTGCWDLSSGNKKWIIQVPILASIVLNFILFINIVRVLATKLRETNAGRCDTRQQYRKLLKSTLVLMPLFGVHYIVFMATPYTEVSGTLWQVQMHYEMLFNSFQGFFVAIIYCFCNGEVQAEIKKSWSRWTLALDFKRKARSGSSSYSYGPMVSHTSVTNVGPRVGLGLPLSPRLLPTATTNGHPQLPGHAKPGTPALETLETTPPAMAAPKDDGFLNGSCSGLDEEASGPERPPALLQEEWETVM
As to the kind of experiment: Reporter gene assay (CRE-luciferase) for agonist activity in transiently transfected HEK-293 cells. It is filed as cell-based. To be noted: for hPTHR-2/hPTHR-1: Table 3, selectivity for hPTH-1 receptor over hPTH-2 receptor; for hPTHR-2/hPTHR-1 / Selectivity hPTHR-2/hPTHR-1: ratio of EC50 values. The procedure, abridged:
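HEK-293 cells transiently transfected with SV40-driven human PTH-1 receptor and CRE-luciferase reporter, exposed to serial compound dilutions for 4-5 h, then lysed for luciferase readout; efficacy and EC50 by non-linear regression, PTH (1-34) as internal control, n≥3. Selectivity measured in analogous human PTH-2 receptor luciferase reporter assays.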
Background: In a reporter assay the amount or activity of a reporter protein is the signal.

A further assay deals with T2, human PTH-2 receptor (Homo sapiens, UniProt P49190).
T2 construct: expressed in transfected cells
As to the kind of experiment: Luciferase-based transcriptional reporter gene assay for selectivity. In kind it is cell-based. On the procedure: Agonist activity of compounds on the human PTH-1 receptor was determined in a reporter gene assay by transiently transfecting HEK-293 cells with plasmids encoding human PTH-1 receptor under control of the SV40 promoter and a luciferase reporter gene under control of cAMP responsive elements (CRE). See Himmler et al, J. Recept. Res. 13 (1993) 79-94, for further guidance on this assay. Transfected cells were exposed to serial dilutions of compounds for 4-5 hours followed by lysis of cells, determination of luciferase activity, and determination of compound efficacies and EC50 values through non-linear regression.
PTH (1-34) was used as an internal control in each experiment and compounds were tested in at least three independent experiments. To determine selectivity, compounds were tested in luciferase-based transcriptional reporter gene assays expressing the human PTH-2 receptor.

SMILES strings stand for the structures. Where two headings read alike, the source gives them in different places. Non-standard residues stand in square brackets, D forms with d. Residues, ends and D or L forms follow the SMILES beside them. 1Nal = N[C@@H](Cc1cccc2ccccc12)C(=O)O; β3hI = CC[C@H](C)[C@H](N)CC(=O)O; β3hR = N=C(N)NCCC[C@H](N)CC(=O)O; Nle = CCCC[C@H](N)C(=O)O; β3hA = C[C@H](N)CC(=O)O; Aib = CC(C)(N)C(=O)O; βAla = NCCC(=O)O

T2 sequence (P49190 25-550): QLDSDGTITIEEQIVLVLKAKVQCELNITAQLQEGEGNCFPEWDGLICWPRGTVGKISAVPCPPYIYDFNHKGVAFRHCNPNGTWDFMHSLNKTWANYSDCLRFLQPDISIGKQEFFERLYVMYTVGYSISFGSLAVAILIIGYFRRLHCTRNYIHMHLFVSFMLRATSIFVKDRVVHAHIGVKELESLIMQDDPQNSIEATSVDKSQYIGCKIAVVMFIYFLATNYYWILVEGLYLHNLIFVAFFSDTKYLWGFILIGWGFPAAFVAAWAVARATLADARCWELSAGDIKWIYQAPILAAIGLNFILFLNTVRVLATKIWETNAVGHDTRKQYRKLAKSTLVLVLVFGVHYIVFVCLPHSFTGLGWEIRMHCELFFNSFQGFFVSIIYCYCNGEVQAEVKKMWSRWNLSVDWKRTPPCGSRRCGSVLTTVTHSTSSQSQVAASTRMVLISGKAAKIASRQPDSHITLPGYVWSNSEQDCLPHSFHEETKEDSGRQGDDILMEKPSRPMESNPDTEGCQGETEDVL

For orientation: EC50 means the concentration at which the effect is half-maximal. On to `CCCC[C@H](NC(=O)[C@H](CC(C)C)NC(=O)[C@H](CCC(N)=O)NC(=O)[C@@H](NC(=O)[C@H](CCC(=O)O)NC(=O)[C@H](CO)NC(=O)[C@@H](NC(=O)[C@@H](N)CO)C(C)C)[C@@H](C)CC)C(=O)N[C@@H](Cc1c[nH]cn1)C(=O)N[C@@H](CC(N)=O)C(=O)N[C@@H](CC(C)C)C(=O)NCC(=O)N[C@@H](CCCCN)C(=O)N[C@@H](Cc1c[nH]cn1)C(=O)N[C@@H](CC(C)C)C(=O)N[C@@H](CC(N)=O)C(=O)N[C@@H](CO)C(=O)N[C@H](CC(=O)N[C@@H](CCC(=O)O)C(=O)N[C@@H](CCCNC(=N)N)C(=O)N[C@H](C(=O)N[C@@H](CCC(=O)O)C(=O)N[C@@H](Cc1cccc2ccccc12)C(=O)N[C@@H](CC(C)C)C(=O)N[C@@H](CCCNC(=N)N)C(=O)N[C@@H](CCCCN)C(=O)N[C@@H](CC(C)C)C(=O)N[C@@H](CC(C)C)C(=O)N[C@@H](CCC(N)=O)C(=O)N[C@@H](CC(=O)O)C(=O)N[C@H](C(=O)N[C@@H](Cc1c[nH]cn1)C(=O)N[C@@H](CC(N)=O)C(=O)N[C@@H](Cc1ccccc1)C(N)=O)C(C)C)C(C)C)[C@@H](C)CC` [SEQ ID NO: 19, [Nle^8, β-hIle^18,1-Nal^23, Leu^27] hPTH (1-34)-NH2] (H-SVSEIQL[Nle]HNLGKHLNS[β3hI]ERVE[1Nal]LRKLLQDVHNF-NH2), for which, at human PTH-1 receptor, the half-maximal effective concentration (EC50) turned out to be 0.14 nM and the hPTHR-2/hPTHR-1 came out at 224. In addition, the “Selectivity hPTHR-2/hPTHR-1” value at human PTH-1 receptor (Table 4 comparison data) is reported as 224. On human PTH-2 receptor, the EC50 was determined as 32 nM.
Regarding `CCCC[C@H](NC(=O)[C@H](CC(C)C)NC(=O)[C@H](CCC(N)=O)NC(=O)[C@@H](NC(=O)[C@H](CCC(=O)O)NC(=O)[C@H](CO)NC(=O)[C@@H](NC(=O)C(C)(C)N)C(C)C)[C@@H](C)CC)C(=O)N[C@@H](Cc1c[nH]cn1)C(=O)N[C@@H](CC(N)=O)C(=O)N[C@@H](CC(C)C)C(=O)NCC(=O)N[C@@H](CCCCN)C(=O)N[C@@H](Cc1c[nH]cn1)C(=O)N[C@@H](CC(C)C)C(=O)N[C@@H](CC(N)=O)C(=O)N[C@@H](CO)C(=O)N[C@@H](CCCNC(=N)N)CC(=O)N[C@@H](CCC(=O)O)C(=O)N[C@@H](CCCNC(=N)N)C(=O)N[C@H](C(=O)N[C@@H](CCC(=O)O)C(=O)N[C@@H](Cc1cccc2ccccc12)C(=O)N[C@@H](CC(C)C)C(=O)N[C@@H](CCCNC(=N)N)C(=O)N[C@@H](CCCCN)C(=O)N[C@@H](CC(C)C)C(=O)N[C@@H](CC(C)C)C(=O)N[C@@H](CCC(N)=O)C(=O)N[C@@H](CC(=O)O)C(=O)N[C@H](C(=O)N[C@@H](Cc1c[nH]cn1)C(=O)N[C@@H](CC(N)=O)C(=O)N[C@@H](Cc1ccccc1)C(N)=O)C(C)C)C(C)C` [SEQ ID NO: 43, [Aib^1, Nle^8, β-hArg^18,1-Nal^23, Leu^27] hPTH (1-34)-NH2] (H-[Aib]VSEIQL[Nle]HNLGKHLNS[β3hR]ERVE[1Nal]LRKLLQDVHNF-NH2), at human PTH-1 receptor, the 50% effective concentration (EC50) is 0.05 nM and the hPTHR-2/hPTHR-1 was determined as 312. Moreover, the “Selectivity hPTHR-2/hPTHR-1” value at human PTH-1 receptor (Table 4 comparison data) is on record as 312. The same molecule gave a half-maximal effective concentration (EC50) on human PTH-2 receptor of 16 nM.
Turning to `CCCC[C@H](NC(=O)CCNC(=O)[C@H](CC(N)=O)NC(=O)[C@H](CC(C)C)NC(=O)[C@H](Cc1c[nH]cn1)NC(=O)[C@H](CCCCN)NC(=O)CNC(=O)[C@H](CC(C)C)NC(=O)[C@H](CC(N)=O)NC(=O)[C@H](Cc1c[nH]cn1)NC(=O)[C@H](CCCC)NC(=O)[C@H](CC(C)C)NC(=O)[C@H](CCC(N)=O)NC(=O)[C@@H](NC(=O)[C@H](CCC(=O)O)NC(=O)[C@H](CO)NC(=O)[C@@H](NC(=O)C(C)(C)N)C(C)C)[C@@H](C)CC)C(=O)N[C@@H](CCC(=O)O)C(=O)N[C@@H](CCCNC(=N)N)C(=O)N[C@H](C(=O)N[C@@H](CCC(=O)O)C(=O)N[C@@H](Cc1cccc2ccccc12)C(=O)N[C@@H](CC(C)C)C(=O)N[C@@H](CCCNC(=N)N)C(=O)N[C@@H](CCCCN)C(=O)N[C@@H](CCCCN)C(=O)N[C@@H](CC(C)C)C(=O)N[C@@H](CCC(N)=O)C(=O)N[C@@H](CC(=O)O)C(=O)N[C@H](C(=O)N[C@@H](Cc1c[nH]cn1)C(=O)N[C@@H](CC(N)=O)C(=O)N[C@@H](Cc1ccccc1)C(N)=O)C(C)C)C(C)C` [SEQ ID NO: 55, [Aib^1, Nle^8,18, β-Ala^17,1-Nal^23] hPTH (1-34)-NH2] (H-[Aib]VSEIQL[Nle]HNLGKHLN[βAla][Nle]ERVE[1Nal]LRKKLQDVHNF-NH2), the EC50 at human PTH-1 receptor (Table 4 comparison data, HEK-293 cells, CRE-luciferase, read-out: hPTHR-1 EC50) is 0.22 nM; at human PTH-2 receptor (Table 4 comparison data, luciferase reporter gene assay, read-out: hPTHR-2 EC50) it was 46 nM. For the same molecule, on human PTH-1 receptor (Table 4 comparison data), the “Selectivity hPTHR-2/hPTHR-1” value was 213.
With `CCCC[C@H](NC(=O)[C@H](CC(C)C)NC(=O)[C@H](CCC(N)=O)NC(=O)[C@@H](NC(=O)[C@H](CCC(=O)O)NC(=O)[C@H](CO)NC(=O)[C@@H](NC(=O)[C@@H](N)CO)C(C)C)[C@@H](C)CC)C(=O)N[C@@H](Cc1c[nH]cn1)C(=O)N[C@@H](CC(N)=O)C(=O)N[C@@H](CC(C)C)C(=O)NCC(=O)N[C@@H](CCCCN)C(=O)N[C@@H](Cc1c[nH]cn1)C(=O)N[C@@H](CC(C)C)C(=O)N[C@@H](CC(N)=O)C(=O)N[C@@H](CO)C(=O)N[C@@H](C)CC(=O)N[C@@H](CCC(=O)O)C(=O)N[C@@H](CCCNC(=N)N)C(=O)N[C@H](C(=O)N[C@@H](CCC(=O)O)C(=O)N[C@@H](Cc1cccc2ccccc12)C(=O)N[C@@H](CC(C)C)C(=O)N[C@@H](CCCNC(=N)N)C(=O)N[C@@H](CCCCN)C(=O)N[C@@H](CC(C)C)C(=O)N[C@@H](CC(C)C)C(=O)N[C@@H](CCC(N)=O)C(=O)N[C@@H](CC(=O)O)C(=O)N[C@H](C(=O)N[C@@H](Cc1c[nH]cn1)C(=O)N[C@@H](CC(N)=O)C(=O)N[C@@H](Cc1ccccc1)C(N)=O)C(C)C)C(C)C` [SEQ ID NO: 18, [Nle^8, β-hAla^18,1-Nal^23, Leu^27] hPTH (1-34)-NH2] (H-SVSEIQL[Nle]HNLGKHLNS[β3hA]ERVE[1Nal]LRKLLQDVHNF-NH2), at human PTH-1 receptor, the concentration giving a half-maximal response (EC50) is 0.22 nM and the hPTHR-2/hPTHR-1 is given as 281. Besides, at human PTH-1 receptor (Table 4 comparison data), the “Selectivity hPTHR-2/hPTHR-1” value is recorded as 281. For the same molecule, on human PTH-2 receptor, the midpoint of the response, the EC50, lay at 61 nM.
With `CCCC[C@H](NC(=O)[C@H](CC(C)C)NC(=O)[C@H](CCC(N)=O)NC(=O)[C@@H](NC(=O)[C@H](CCC(=O)O)NC(=O)[C@H](CO)NC(=O)[C@@H](NC(=O)[C@@H](N)CO)C(C)C)[C@@H](C)CC)C(=O)N[C@@H](Cc1c[nH]cn1)C(=O)N[C@@H](CC(N)=O)C(=O)N[C@@H](CC(C)C)C(=O)NCC(=O)N[C@@H](CCCCN)C(=O)N[C@@H](Cc1c[nH]cn1)C(=O)N[C@@H](CC(C)C)C(=O)N[C@@H](CCCCN)C(=O)N[C@@H](CO)C(=O)N[C@H](CC(=O)N[C@@H](CCC(=O)O)C(=O)N[C@@H](CCCNC(=N)N)C(=O)N[C@H](C(=O)N[C@@H](CCC(=O)O)C(=O)N[C@@H](Cc1cccc2ccccc12)C(=O)N[C@@H](CC(C)C)C(=O)N[C@@H](CCCNC(=N)N)C(=O)N[C@@H](CCCCN)C(=O)N[C@@H](CC(C)C)C(=O)N[C@@H](CC(C)C)C(=O)N[C@@H](CCC(N)=O)C(=O)N[C@@H](CCCNC(=N)N)C(=O)N[C@H](C(=O)N[C@@H](Cc1c[nH]cn1)C(=O)N[C@@H](CCC(=O)O)C(=O)N[C@@H](Cc1ccccc1)C(N)=O)C(C)C)C(C)C)[C@@H](C)CC` [SEQ ID NO: 41, [Nle^8, Lys^16, β-hIle^18,1-Nal^23, Leu^27, Arg^30, Glu^33] hPTH (1-34)-NH2] (H-SVSEIQL[Nle]HNLGKHLKS[β3hI]ERVE[1Nal]LRKLLQRVHEF-NH2), on human PTH-1 receptor, the half-maximal effective concentration (EC50) was determined as 0.09 nM and the hPTHR-2/hPTHR-1 turned out to be 157. On human PTH-2 receptor, this molecule showed an EC50 of 14 nM.
